± gives the expanded uncertainty stated by the source.
Assay: refractive index (Na D-line) (dimensionless); xn = mol fraction of the nth substance listed
Details: 101 kPa, Liquid, Dipping refractometry (monochromatic)

C1CCOC1 [tetrahydrofuran] + CCCCO
refractive index
Details	x1 = 0.1001	x1 = 0.2003	x1 = 0.3	x1 = 0.4003	x1 = 0.5	x1 = 0.6001	x1 = 0.7003	x1 = 0.8006	x1 = 0.9002	x1 = 1
288.15 K	1.402 ± 0.0002	1.4028 ± 0.0002	1.4036 ± 0.0002	1.4043 ± 0.0002	1.4051 ± 0.0002	1.4059 ± 0.0002	1.4068 ± 0.0002	1.4077 ± 0.0002	1.4087 ± 0.0002	1.4096 ± 0.0002
293.15 K	1.3999 ± 0.0002	1.4006 ± 0.0002	1.4013 ± 0.0002	1.4021 ± 0.0002	1.4028 ± 0.0002	1.4035 ± 0.0002	1.4044 ± 0.0002	1.4052 ± 0.0002	1.4061 ± 0.0002	1.407 ± 0.0002
298.15 K	1.3978 ± 0.0002	1.3985 ± 0.0002	1.3991 ± 0.0002	1.3998 ± 0.0002	1.4004 ± 0.0002	1.4011 ± 0.0002	1.4019 ± 0.0002	1.4027 ± 0.0002	1.4035 ± 0.0002	1.4043 ± 0.0002
303.15 K	1.3957 ± 0.0002	1.3963 ± 0.0002	1.3969 ± 0.0002	1.3974 ± 0.0002	1.398 ± 0.0002	1.3987 ± 0.0002	1.3994 ± 0.0002	1.4001 ± 0.0002	1.4009 ± 0.0002	1.4016 ± 0.0002
308.15 K	1.3936 ± 0.0002	1.3941 ± 0.0002	1.3946 ± 0.0002	1.3951 ± 0.0002	1.3957 ± 0.0002	1.3962 ± 0.0002	1.3969 ± 0.0002	1.3975 ± 0.0002	1.3983 ± 0.0002	1.399 ± 0.0002
313.15 K	1.3914 ± 0.0002	1.3919 ± 0.0002	1.3923 ± 0.0002	1.3928 ± 0.0002	1.3933 ± 0.0002	1.3938 ± 0.0002	1.3943 ± 0.0002	1.3949 ± 0.0002	1.3956 ± 0.0002	1.3963 ± 0.0002
318.15 K	1.3893 ± 0.0002	1.3897 ± 0.0002	1.3901 ± 0.0002	1.3905 ± 0.0002	1.3909 ± 0.0002	1.3913 ± 0.0002	1.3918 ± 0.0002	1.3923 ± 0.0002	1.3929 ± 0.0002	1.3936 ± 0.0002
323.15 K	1.3871 ± 0.0002	1.3874 ± 0.0002	1.3878 ± 0.0002	1.3881 ± 0.0002	1.3885 ± 0.0002	1.3888 ± 0.0002	1.3893 ± 0.0002	1.3897 ± 0.0002	1.3903 ± 0.0002	1.3909 ± 0.0002

Reference: the NIST ThermoML archive (doi:10.1021/je4003916)
